These are literature values, as cited in PubChem BioAssay AID1259409 (Chemical Carcinogenesis Research Information System (CCRIS), 2018).

In this data set the test system is rodent chemically induced tumor inhibition, incidence and multiplicity. Briefly: CCRIS tumor inhibitor studies.

`CC1=C(/C=C/C(C)=C/C=C/C(C)=C/C(=O)O)C(C)(C)CCC1`: the “tumour outcome (control, treated, inhibition, significance)” value is recorded as 95%, 92%, 3%, not significant (Carcinogen: 7,12-DIMETHYLBENZ[A]ANTHRACENE, 57-97-6, Dose [Inhibitor]: 68 NMOL IN 0.2 ML ACETONE ONCE 1 HR BEFORE APPLICATION OF CARCINOGEN (STUDY DURATION: 21 WK), Route [Inhibitor]: DERMAL, Species: MOUSE, Strain/Sex: CD-1/FEMALE, Target Tissue: Type of Lesion: SKIN: PAPILLOMA, Dose [Carcinogen]: 0.2 UMOL IN 0.2 ML ACETONE ONCE, Promoter: 12-O-TETRADECANOYLPHORBOL-13-ACETATE, 16561-29-8); 100%, 87%, 13%, not calculated (Carcinogen: 7,12-DIMETHYLBENZ[A]ANTHRACENE, 57-97-6, Dose [Inhibitor]: 170 NMOL IN 0.2 ML ACETONE 1 HR PRIOR TO EACH PROMOTER DOSE FOR 12 WK (STUDY DURATION: 14 WK), Route [Inhibitor]: DERMAL, Species: MOUSE, Strain/Sex: SENCAR/FEMALE, Target Tissue: Type of Lesion: SKIN: PAPILLOMA, Dose [Carcinogen]: 200 NMOL IN 0.2 ML ACETONE ONCE, Promoter: 12-O-TETRADECANOYLPHORBOL-13-ACETATE, 16561-29-8); 94%, 63%, 33%, not calculated (Carcinogen: 7,12-DIMETHYLBENZ[A]ANTHRACENE, 57-97-6, Dose [Inhibitor]: 170 NMOL IN 0.2 ML ACETONE 1 HR PRIOR TO EACH PROMOTER DOSE FOR 20 WK (STUDY DURATION: 22 WK), Route [Inhibitor]: DERMAL, Species: MOUSE, Strain/Sex: CD-1/FEMALE, Target Tissue: Type of Lesion: SKIN: PAPILLOMA, Dose [Carcinogen]: 200 NMOL IN 0.2 ML ACETONE ONCE, Promoter: 12-O-TETRADECANOYLPHORBOL-13-ACETATE, 16561-29-8); 20%, 13%, 35%, not significant (Carcinogen: DIETHYLNITROSAMINE, 55-18-5, Dose [Inhibitor]: 0, 10000 IU/KG IN CORN OIL FOR DURATION OF STUDY BEGINNING 7 D PRIOR TO FIRST CARCINOGEN DOSE (STUDY DURATION: 6 MO), Route [Inhibitor]: GAVAGE, Species: RAT, Strain/Sex: BD6/FEMALE, Target Tissue: Type of Lesion: ESOPHAGUS: TUMOR, Dose [Carcinogen]: 80 MG/KG BW 1/WK FOR 8 WK, Promoter: NONE USED); 83%, 91%, -10%, not significant (Carcinogen: DIETHYLNITROSAMINE, 55-18-5, Dose [Inhibitor]: 0, 10000 IU/KG IN CORN OIL FOR DURATION OF STUDY BEGINNING 7 D PRIOR TO FIRST CARCINOGEN DOSE (STUDY DURATION: 6 MO), Route [Inhibitor]: GAVAGE, Species: RAT, Strain/Sex: BD6/FEMALE, Target Tissue: Type of Lesion: LIVER: TUMOR, Dose [Carcinogen]: 80 MG/KG BW 1/WK FOR 8 WK, Promoter: NONE USED); 30%, 13%, 57%, not significant (Carcinogen: DIETHYLNITROSAMINE, 55-18-5, Dose [Inhibitor]: 0, 20000 IU/KG IN CORN OIL FOR DURATION OF STUDY BEGINNING 7 D PRIOR TO FIRST CARCINOGEN DOSE (STUDY DURATION: 6 MO), Route [Inhibitor]: GAVAGE, Species: RAT, Strain/Sex: BD6/FEMALE, Target Tissue: Type of Lesion: ESOPHAGUS: TUMOR, Dose [Carcinogen]: 80 MG/KG BW 1/WK FOR 8 WK, Promoter: NONE USED). Also, the “tumour outcome (control, treated, inhibition, significance)” value by setting is: (Carcinogen: DIETHYLNITROSAMINE, 55-18-5, Dose [Inhibitor]: 0, 20000 IU/KG IN CORN OIL FOR DURATION OF STUDY BEGINNING 7 D PRIOR TO FIRST CARCINOGEN DOSE (STUDY DURATION: 6 MO), Route [Inhibitor]: GAVAGE, Species: RAT, Strain/Sex: BD6/FEMALE, Target Tissue: Type of Lesion: LIVER: TUMOR, Dose [Carcinogen]: 80 MG/KG BW 1/WK FOR 8 WK, Promoter: NONE USED) 85%, 93%, -9%, not significant; (Carcinogen: N-METHYL-N'-NITRO-N-NITROSOGUANIDINE, 70-25-7, Dose [Inhibitor]: 0, 0.75 MG/KG BW 1/2 D FOR 26 WK BEGINNING POST CARCINOGEN TREATMENT (STUDY DURATION: 52 WK), Route [Inhibitor]: SUBCUTANEOUS, Species: RAT, Strain/Sex: WISTAR/MALE, Target Tissue: Type of Lesion: STOMACH: ADENOCARCINOMA, Dose [Carcinogen]: 25 UG/ML IN DRINKING WATER FOR 25 WK, Promoter: SODIUM CHLORIDE, 7647-14-5) 17/20 (85%), 8/20 (40%), 53% p<0.01; (Carcinogen: N-METHYL-N'-NITRO-N-NITROSOGUANIDINE, 70-25-7, Dose [Inhibitor]: 0, 1.5 MG/KG BW 1/2 D FOR 26 WK BEGINNING POST CARCINOGEN TREATMENT (STUDY DURATION: 52 WK), Route [Inhibitor]: SUBCUTANEOUS, Species: RAT, Strain/Sex: WISTAR/MALE, Target Tissue: Type of Lesion: STOMACH: ADENOCARCINOMA, Dose [Carcinogen]: 25 UG/ML IN DRINKING WATER FOR 25 WK, Promoter: SODIUM CHLORIDE, 7647-14-5) 17/20 (85%), 7/20 (35%), 59%, p<0.01; (Carcinogen: N-NITROSO-N-METHYLUREA, 684-93-5, Dose [Inhibitor]: 0, 60 MG/KG OF DIET FOR 3 MO BEGINNING 1 WK POST CARCINOGEN DOSE (STUDY DURATION: 100 D), Route [Inhibitor]: ORAL, Species: RAT, Strain/Sex: SPRAGUE-DAWLEY/FEMALE, Target Tissue: Type of Lesion: MAMMARY GLAND: TUMOR, Dose [Carcinogen]: 50 MG/KG BW ONCE, Promoter: NONE USED) 100%, 92%, 8%, not significant; (Carcinogen: N-NITROSO-N-METHYLUREA, 684-93-5, Dose [Inhibitor]: 0, 120 MG/KG OF DIET FOR 13 MO BEGINNING 1 WK POST CARCINOGEN DOSE (STUDY DURATION: 100 D), Route [Inhibitor]: ORAL, Species: RAT, Strain/Sex: SPRAGUE-DAWLEY/FEMALE, Target Tissue: Type of Lesion: MAMMARY GLAND: TUMOR, Dose [Carcinogen]: 50 MG/KG BW ONCE, Promoter: NONE USED) 100%, 83%, 17%, not significant.
